Positions of bridges follow the written chain, without caps; N, C: chain ends. Residues, ends and D or L forms follow the SMILES beside them.
Assays:
[1] = Parallel artificial membrane permeability assay (PAMPA); type: in vitro ADME; conditions: PAMPA
Experimental: (§1) FIGURE 4 (A) Membrane permeability and cellular uptake of PDCs, scaffold peptides, and CPT. Compounds were added to PAMPA wells (4 μM) and incubated for 4 h. Supernatant from apical and basolateral sides of the membrane were collected and analyzed using LC–MS. The amount in the combined soluble fractions was compared to the starting amount to determine % recovery, and the apparent permeability (Papp) was calculated as before (Sevin et al. [2013]). Data is expressed as mean ± SD from a single experiment with three technical replicates. (B) Internalization/cell membrane association of PDCs 12–14 and PDIP with HT144 cells. Cells were treated with PDIP or PDCs (4 μM) for 1 h, washed to remove extracellular compound, then extracted with 75% (v/v) MeCN in mQH2O (containing 1.75% (v/v) TFA), to recover soluble peptide or PDC from precipitated cell proteins. The relative amount of internalized peptide or PDC was determined by integrating area under the curve (AUC) for the [M + 6H]^6+ m/z peak (for the intact mass) using time of flight–mass spectrometry (see Figure S2). […] Data is expressed as mean ± SD from a single experiment with three technical replicates for each treatment and control and was analyzed with ANOVA (Tukey multiple comparisons; **p < 0.01, *p < 0.05). (C) Detection of intracellular CPT following 6 h treatment of HT144 cells with CPT and PDCs 12 and 14. […] Data is expressed as mean ± SD from a single experiment with three technical replicates for each treatment and was analyzed with ANOVA (Fisher multiple paired comparisons; **p < 0.01, *p < 0.05). TEXT PRINTED IN THE PICTURE: (A) PDIP: % recovered (soluble fractions): 94 | (A) 12: % recovered (soluble fractions): 58 | (A) 14: % recovered (soluble fractions): 33 | (A) 15: % recovered (soluble fractions): 40 | (A) c[A] PDIP: % recovered (soluble fractions): 34 | (A) CPT: % recovered (soluble fractions): 92 […]
For the first assay, the PDCs (12–15), scaffold peptides and CPT (4 μM) were added to the apical side of PAMPA monolayers and incubated for 4 h. […] PDIP, CPT, and PDCs 12 and 14 had high permeability (Papp ≥ 2 × 10^−6 cm/s), highlighting that these PDCs maintain membrane permeability with the CPT cargo attached. […] Reliable permeability data were not obtained for PDC 13 because of poor recovery of the PDC from soluble fractions, and degradation during the 4 h PAMPA experiment. […] Instability of the carbonate linkage within CPT conjugates containing a dipeptide linker has been previously reported (Walker et al. [2002]), highlighting the potential incompatibility of this drug–linker combination for CPT PDCs. Considering the observed degradation of 13 in the cell‐free assay, it is also possible that extracellular degradation occurred during the cytotoxicity assays.
Parallel artificial membrane permeability assay (PAMPA)
PAMPA was performed according to the manufacturer instructions for the BD Gentest pre-coated PAMPA plate system (BD Biosciences), as previously described.16 Briefly, peptides and PDCs (4 μM in PBS) were added to the apical side of PAMPA wells and incubated for 4 h at 37 °C, 5% CO2 with 95% humidity. Soluble fractions were recovered from the apical and basolateral sides, and compound concentration was quantified using a Shimadzu LCMS-2020 instrument with a Phenomenex 5 µm C18 / 300 Å / 150 x 2 mm LC column. Data was collected from three technical replicates for each compound. The % recovery was determined from (combined from apical and basolateral fractions) relative to the starting concentration:
Recovery rate : R (%) = (C஺ ×V஺ +C஻ ×V஻ )× 100 where CA and CB are the apical and basolateral concentrations (µM), VA and VB are the apical and basolateral volumes (mL), and C0 is the initial concentration (µM).
The apparent permeability coefficient (Papp) was calculated using the following equations17 and where A is the membrane surface area (cm2): […]

[2] = system: HT144 cells; assay: Compound internalization/association with HT144 cells (TOF-MS of cell extracts); type: cell-based; conditions: 4 μM, 1 h
Experimental: as §1, with “Cells were treated with PDIP or PDCs (4 μM) for 1 h, washed to remove extracellular compound, then extracted with 75% (v/v) MeCN in mQH2O (containing 1.75% (v/v) TFA), to recover soluble peptide or PDC from precipitated cell proteins.” left out, “0.05).” for “0.05). (C) Detection of intracellular CPT following 6 h treatment of HT144 cells with CPT and PDCs 12 and 14.”, “0.05).” for “0.05). TEXT PRINTED IN THE PICTURE: (A) PDIP: % recovered (soluble fractions): 94 | (A) 12: % recovered (soluble fractions): 58 | (A) 14: % recovered (soluble fractions): 33 | (A) 15: % recovered (soluble fractions): 40 | (A) c[A] PDIP: % recovered (soluble fractions): 34 | (A) CPT: % recovered (soluble fractions): 92”
The area under the curve (AUC) for the [M+6H]6+ m/z peak for each compound was determined using Sciex […]

## CC[C@H](C)[C@@H]1NC(=O)[C@H](CCCCN)NC(=O)[C@H](CCCCN)NC(=O)[C@H](Cc2ccc(O)cc2)NC(=O)[C@H](CC(C)C)NC(=O)[C@@H]2CCCN2C(=O)CNC(=O)CNC(=O)[C@@H](NC(=O)CN)CSSC[C@@H](C(=O)N[C@@H](CCC(=O)O)C(=O)N[C@@H](CO)C(N)=O)NC(=O)[C@H](CC(C)C)NC(=O)[C@H](CCCCN)NC(=O)[C@H](CCCCN)NC(=O)[C@H]([C@@H](C)CC)NC(=O)[C@H]([C@@H](C)CC)NC(=O)[C@H](CCCCN)NC(=O)[C@H](CCCCN)NC(=O)[C@H](Cc2ccc(O)cc2)NC(=O)[C@H](CC(C)C)NC(=O)[C@@H]2CCCN2C(=O)[C@H](C)NC(=O)CNC(=O)CNC(=O)[C@H](CO)NC(=O)CNC(=O)CNC(=O)[C@H](CO)NC(=O)[C@H](CCC(=O)O)NC(=O)[C@H](CC(C)C)NC(=O)[C@H](CC(C)C)NC(=O)[C@H](CCCCN)NC(=O)[C@H](CCCCN)NC(=O)[C@H]([C@@H](C)CC)NC1=O [PDIP, reference compound] (H-GCGGPLYKKIIKKLLESGGSGGAPLYKKIIKKLCES-NH2; disulfide 2-34; N-terminus assumed)
[1]
  Papp at 4 h, 4 μM: ≥ 2 ×10⁻⁶ cm/s
[2]
  recovered intact conjugate/peptide (percentage of internalized compound): 9%

Reference: PMC11747586, “Synthesis and Investigation of Peptide–Drug Conjugates Comprising Camptothecin and a Human Protein‐Derived Cell‐Penetrating Peptide” (Chemical Biology & Drug Design, 2025)
